Measured values taken from patent publication EP4692088A1, “COMPOUND ACTING AS WRN HELICASE INHIBITOR” (SHANGHAI JEYOU PHARMACEUTICAL CO., LTD., priority 2023, dated 2024).
Like-named read-outs stand apart in the source and are kept apart here. One block for each compound: values may come before it.

How the values were obtained:
HCT116 cells = assay: Cell proliferation assay (CellTiter-Glo), HCT116; type: cell-based; settings: Homo sapiens, 120 h, HCT-116, 5 days incubation
Description: (§1) SW48 cells were plated at a density of 1,500 cells/well, and LoVo, HCT116, and SW620 cells were plated at a density of 800 cells/well in a 96-well cell culture plate, and cultured in a 37°C incubator overnight. The test compounds, which were gradient-diluted with DMSO, were added, and after incubation for 5 days, cell viability was detected using a CellTiter-Glo kit. The CellTiter-Glo reagent was equilibrated to room temperature, and an appropriate amount was added to the cell plate, followed by shaking at room temperature for 12 min. The luminescence signal was detected using a microplate reader.
(§2) The luminescence signal values of the DMSO-treated wells and cell-free wells were used as negative and positive controls, respectively, to calculate the inhibition rate of compound on cell proliferation. The concentration-inhibition curve was fitted using the "log(inhibitor) vs. normalized response -- Variable slope" equation in GraphPad Prism 8 software to obtain the IC50. [formula]

SW48 cells = assay: Cell proliferation assay (CellTiter-Glo), SW48; type: cell-based; settings: Homo sapiens, SW48, 120 h, SW-48, 5 days incubation
Description: as §1, §2

SW620 cells = assay: Cell proliferation assay (CellTiter-Glo), SW620; type: cell-based; settings: Homo sapiens, 120 h, SW-620 (MSS), 5 days incubation
Description: as §1, §2

LoVo = assay: Cell proliferation assay (CellTiter-Glo), LoVo; type: cell-based; settings: Homo sapiens, 120 h, 5 days incubation
Description: as §1, §2

WRN enzyme = target: T1, WRN enzyme (Homo sapiens, UniProt Q14191); assay: biochemical
T1 construct: host or cells: eukaryotic cells (not further specified)
T1 sequence (Q14191 whole entry): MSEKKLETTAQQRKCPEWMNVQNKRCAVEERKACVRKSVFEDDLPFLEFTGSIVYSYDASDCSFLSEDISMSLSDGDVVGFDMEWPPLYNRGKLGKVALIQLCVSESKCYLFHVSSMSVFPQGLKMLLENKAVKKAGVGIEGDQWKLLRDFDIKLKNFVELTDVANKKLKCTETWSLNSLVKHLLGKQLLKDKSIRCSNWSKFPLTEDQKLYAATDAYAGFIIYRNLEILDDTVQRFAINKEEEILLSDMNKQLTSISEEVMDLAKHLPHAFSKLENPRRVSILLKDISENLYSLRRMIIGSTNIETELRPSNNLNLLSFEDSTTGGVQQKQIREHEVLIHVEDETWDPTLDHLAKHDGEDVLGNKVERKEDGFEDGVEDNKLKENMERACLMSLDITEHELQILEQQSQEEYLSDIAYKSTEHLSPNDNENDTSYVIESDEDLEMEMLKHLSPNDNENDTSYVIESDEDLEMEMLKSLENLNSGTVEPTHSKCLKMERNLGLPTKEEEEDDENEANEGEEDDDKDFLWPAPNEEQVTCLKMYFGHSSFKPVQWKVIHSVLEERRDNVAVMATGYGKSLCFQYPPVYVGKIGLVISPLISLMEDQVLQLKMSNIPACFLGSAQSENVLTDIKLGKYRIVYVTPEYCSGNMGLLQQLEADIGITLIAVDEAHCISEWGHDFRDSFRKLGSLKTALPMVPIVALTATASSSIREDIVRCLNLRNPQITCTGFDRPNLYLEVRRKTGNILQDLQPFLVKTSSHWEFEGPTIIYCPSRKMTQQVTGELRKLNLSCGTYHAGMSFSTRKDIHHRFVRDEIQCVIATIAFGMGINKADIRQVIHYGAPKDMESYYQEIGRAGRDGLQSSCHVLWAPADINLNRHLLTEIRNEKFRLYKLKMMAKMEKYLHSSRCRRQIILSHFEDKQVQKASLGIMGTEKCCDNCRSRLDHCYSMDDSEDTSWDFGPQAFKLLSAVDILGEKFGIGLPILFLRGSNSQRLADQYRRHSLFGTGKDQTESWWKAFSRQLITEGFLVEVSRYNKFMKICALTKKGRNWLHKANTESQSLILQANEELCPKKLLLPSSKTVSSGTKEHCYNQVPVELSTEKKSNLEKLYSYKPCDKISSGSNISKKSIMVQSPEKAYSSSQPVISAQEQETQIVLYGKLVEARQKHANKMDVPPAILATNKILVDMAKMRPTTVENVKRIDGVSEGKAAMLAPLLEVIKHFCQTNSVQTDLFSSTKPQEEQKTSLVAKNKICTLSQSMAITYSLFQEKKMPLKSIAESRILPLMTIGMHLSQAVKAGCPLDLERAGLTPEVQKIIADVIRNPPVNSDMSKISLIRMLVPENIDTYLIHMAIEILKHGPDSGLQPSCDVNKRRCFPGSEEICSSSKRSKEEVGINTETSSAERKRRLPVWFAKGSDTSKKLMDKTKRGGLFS
Description: The WRN enzyme used in the experiment has a His-TEV tag at the N-terminus and is expressed in eukaryotic cells with a purity of 90%. The assay kit (ADP-Glo™ Kinase Assay) was purchased from Promega (Cat. No. V9101), aliquoted, and then stored in the refrigerator at -40°C. This kit could quantitatively detect the amount of ADP generated in the reaction. WRN hydrolyzed ATP to produce ADP. The ADP-Glo reagent was added to deplete excess ATP in the reaction system, followed by the addition of Kinase Detection Reagent to convert the ADP produced by the reaction into ATP and produce chemiluminescence. The enzyme activity of WRN can be reflected by detecting the chemiluminescence signal using a microplate reader.
Single-stranded DNA was annealed to form double-stranded DNA. 5× Annealing Buffer: 50 mM Tris pH 8.0, 100 mM NaCl. Annealing program: 95°C, 5 min.
2× WRN enzyme (1 nM) and 2× substrate (1 nM double-stranded DNA, 100 µM ATP) were prepared using a buffer (20 mM Bicine (pH 7.5), 10 mM KCl, 10 mM MgCl2, 0.005% BSG, 0.002% Tween 20, 1 mM TCEP). The test compound was dissolved in DMSO to 10 mM and was gradient-diluted using a 96-well V-bottom plate. First, 25 µL of 2× WRN enzyme and 0.5 µL of compound were added to a 96-well plate and incubated at room temperature for 30 min. Then, 25 µL of 2× substrate was added, and the reaction was carried out at room temperature for 60 min. 5 µL was taken from the reaction plate and transferred to a 384-well plate for detection. 5 µL of ADP-Glo reagent was added and incubated at room temperature for 60 min, followed by the addition of 10 µL of Kinase Detection Reagent and incubation at room temperature for 40 min. The chemiluminescence signal was detected using a microplate reader.

[1] = read-out: WRN helicase activity (IC50 nM)

Structure (SMILES): CCc1c(N2CCN(C(=O)c3ncnc(C)c3O)CC2)c(=O)c2nn(C3=CCOCC3)cc2n1CC(=O)Nc1ccc(C(F)(F)F)cc1Cl [Example 5]
IC50 (HCT116 cells): 1580 nM
IC50 (SW48 cells): 943 nM
IC50 (SW620 cells): > 25000 nM
IC50 (LoVo): 2710 nM

Structure (SMILES): CCc1c(N2CCN(C(=O)c3ncccc3O)CC2)c(=O)c2nn(C3=CCOCC3)cc2n1CC(=O)Nc1ccc(C(F)(F)F)cc1Cl [Example 6]
IC50 (SW48 cells): 324 nM
IC50 (SW620 cells): > 25000 nM
IC50 (WRN enzyme): 134 nM

Structure (SMILES): CCc1c(N2CCN(C(=O)c3ncnc(C)c3O)CC2)c(=O)c2nn(C3=CCOCC3)nc2n1CC(=O)Nc1ccc(C(F)(F)F)cc1C [Example 8]
IC50 (SW48 cells): 133 nM
IC50 (SW620 cells): > 25000 nM
IC50 (WRN enzyme): 118 nM

IC50 (WRN enzyme; [1]): 94.9 nM
Structure (SMILES): CCc1c(N2CCN(C(=O)c3ncnc(C)c3O)CC2)c(=O)c2nn(C3=CCOCC3)nc2n1CC(=O)Nc1ccc(C(F)(F)F)cc1F [Example 9]

Structure (SMILES): CCc1c(C2=CCN(C(=O)c3ncnc(C)c3O)CC2)c(=O)c2cn(C3=CCOCC3)nc2n1CC(=O)Nc1ccc(C(F)(F)F)cc1Cl [Example 10]
IC50 (HCT116 cells): 552 nM
IC50 (SW48 cells): 331 nM
IC50 (SW620 cells): > 25000 nM
IC50 (LoVo): 871 nM
IC50 (WRN enzyme): 238 nM

IC50 (WRN enzyme; [1]): 65.3 nM
Structure (SMILES): CCc1c(N2CCN(C(=O)c3ncnc(C)c3O)CC2)c(=O)c2nn(C3=CCN(S(=O)(=O)C4CC4)CC3)cc2n1CC(=O)Nc1ccc(C(F)(F)F)cc1Cl [Example 11]

Structure (SMILES): CCc1c(N2CCN(C(=O)c3ncnc(C)c3O)CC2)c(=O)c2nn(C3=CCOCC3)cc2n1CC(=O)Nc1ccc(S(F)(F)(F)(F)F)cc1 [Example 12]
IC50 (SW48 cells): 317 nM
IC50 (SW620 cells): > 25000 nM
IC50 (WRN enzyme): 86 nM

Structure (SMILES): CCc1c(N2CCN(C(=O)c3ncnc(C)c3O)CC2)c(=O)c2nn(C3=CCOCC3)nc2n1CC(=O)Nc1ncc(C(F)(F)F)cc1Cl [Example 13]
IC50 (HCT116 cells): 435 nM
IC50 (SW620 cells): > 25000 nM
IC50 (WRN enzyme): 104 nM

Structure (SMILES): CCc1c(N2CCN(C(=O)c3ncnc(C)c3O)CC2)c(=O)c2nn(C3=CCOCC3)nc2n1CC(=O)Nc1cc(Cl)c(C(F)(F)F)cc1C [Example 14]
IC50 (SW48 cells): 42.4 nM
IC50 (SW620 cells): > 25000 nM
IC50 (WRN enzyme): 30.8 nM

Structure (SMILES): CCc1c(N2CCN(C(=O)c3ncnc(C)c3O)CC2)c(=O)c2nn(C3=CCOCC3)nc2n1CC(=O)Nc1ccc2c(c1)CC2 [Example 16]
IC50 (SW48 cells): 148 nM
IC50 (SW620 cells): > 25000 nM
IC50 (WRN enzyme): 42.6 nM

Structure (SMILES): CCc1c(N2CCN(C(=O)c3ncnc(C)c3O)CC2)c(=O)c2nn(C3=CCOCC3)nc2n1CC(=O)Nc1ccc2c(c1)CCC2 [Example 17]
IC50 (SW48 cells): 126 nM
IC50 (SW620 cells): > 25000 nM
IC50 (WRN enzyme): 34.7 nM

Structure (SMILES): CCc1c(N2CCN(C(=O)c3ncncc3O)CC2)c(=O)c2nn(C3=CCOCC3)nc2n1CC(=O)Nc1ccc(C(F)(F)F)cc1Cl [Example 18]
IC50 (SW48 cells): 51.1 nM
IC50 (SW620 cells): > 25000 nM
IC50 (WRN enzyme): 64.3 nM

Structure (SMILES): CCc1c(N2CCN(C(=O)c3ncccc3O)CC2)c(=O)c2nn(C3=CCOCC3)nc2n1CC(=O)Nc1cc(F)c(C(F)(F)F)cc1Cl [Example 19]
IC50 (SW48 cells): 60.9 nM
IC50 (SW620 cells): 20700 nM
IC50 (WRN enzyme): 44.3 nM

Structure (SMILES): CCc1c(N2CCN(C(=O)c3ncccc3O)CC2)c(=O)c2nn(C3=CCOCC3)nc2n1CC(=O)Nc1ccc(C(F)(F)F)cc1Cl [Example 20]
IC50 (SW48 cells): 33.8 nM
IC50 (SW620 cells): 23700 nM
IC50 (WRN enzyme): 35.5 nM

IC50 (WRN enzyme; [1]): 24.4 nM
Structure (SMILES): CCc1c(N2CCN(C(=O)c3ncnc(C)c3O)CC2)c(=O)c2nn(C3=CCOCC3)nc2n1CC(=O)Nc1ccc(S(F)(F)(F)(F)F)cc1 [Example 21]

Structure (SMILES): CCc1c(N2CCN(C(=O)c3ncnc(C)c3O)CC2)c(=O)c2nn(C3=CCOCC3)nc2n1CC(=O)Nc1cc(F)c(C(F)(F)F)cc1F [Example 23]
IC50 (SW48 cells): 102 nM
IC50 (SW620 cells): > 25000 nM
IC50 (WRN enzyme): 41.9 nM
